The values below come from ChEMBL document CHEMBL1156829 (Proc Natl Acad Sci U S A, 2008).

The structures appear in SMILES notation.

The subject of data set [1] is Plasmodium falciparum. Put plainly: NOVARTIS: Inhibition of Plasmodium falciparum W2 (drug-resistant) proliferation in erythrocyte-based infection assay. The data set is classed as functional, organism-based. To be noted: Plasmodium falciparum, W2; read-out: EC50.
Data set [2] is described as follows: NOVARTIS: Cytotoxicity against human hepatocellular carcinoma cell line (Huh7). The data set is classed as toxicity, cell-based, Huh-7. The note with it: Huh7 cells (hepatocellular carcinoma cell line).
Data set [3] concerns Plasmodium falciparum. Put plainly: NOVARTIS: Inhibition of Plasmodium falciparum 3D7 (drug-susceptible) proliferation in erythrocyte-based infection assay. The data set is classed as functional, organism-based. To be noted: Plasmodium falciparum, 3D7.

For the molecule `CC(C)(C)NCC(O)COc1cccc2oc3ccccc3c12` (stereo not given), the results for the EC50 with Plasmodium falciparum [1] and in the data set with Plasmodium falciparum [3] were 653 nM and over 1250 nM, respectively. Further, in data set [2], the CC50 is over 10000 nM.

For `Brc1ccc(C=Nc2ccc(-c3nc4cc(-c5ccc6[nH]c(-c7ccc(N=Cc8ccc(Br)cc8)cc7)nc6c5)ccc4[nH]3)cc2)cc1`, the EC50 came out at 647 nM in the data set on Plasmodium falciparum [1] and 587 nM in the data set with Plasmodium falciparum [3]. The CC50 in data set [2] was over 10000 nM.

With `Cc1ccn2c(NC(C)(C)CC(C)(C)C)c(-c3ccccc3OC(=O)C(c3ccccc3)c3ccccc3)nc2c1`, the EC50 with Plasmodium falciparum [1] was found to be 71.8 nM; in the data set on Plasmodium falciparum [3], 746 nM. For the same molecule, the CC50 in data set [2] is over 1120 nM.

On to `CC(CC(=O)NCCCCNc1ccnc2cc(Cl)ccc12)CC(C)(C)C` (stereo not given), for which the EC50 in the data set with Plasmodium falciparum [1] was 296 nM; in the data set with Plasmodium falciparum [3], 443 nM. In addition, in data set [2], the midpoint of cytotoxicity, the CC50, lay at 4590 nM.

On to `CCOC(=O)CN1C(=O)c2ccccc2Sc2ncccc21`, for which the results for the EC50 in the data set with Plasmodium falciparum [1] and with Plasmodium falciparum [3] were over 644 nM and over 1120 nM, respectively. Besides, in data set [2], the CC50 is over 10000 nM.

For `Clc1ccc2c(NC3CCCCCCC3)ccnc2c1`, the EC50 in the data set on Plasmodium falciparum [1] turned out to be 881 nM; in the data set on Plasmodium falciparum [3] it was 1040 nM. Also, the CC50 in data set [2] is over 13700 nM.

With `CC(=O)N1c2ccccc2CC1C(=O)NCc1cccc(Cl)c1` (stereo not given), the EC50 in the data set on Plasmodium falciparum [1] was over 6460 nM; in the data set with Plasmodium falciparum [3] it was over 12500 nM. The same molecule showed a CC50 in data set [2] of over 100000 nM.

`CC(=O)c1ccc(N2C(C)c3nc4ccccc4c(=O)n3C2c2cccc(O)c2)cc1` (stereo not given): the figures for the EC50 with Plasmodium falciparum [1] and in the data set with Plasmodium falciparum [3] were 646 nM and 1050 nM, respectively. The molecule also showed a CC50 in data set [2] of over 10000 nM.

With `CCN(CC)CCN(Cc1cc2cc(OC)ccc2[nH]c1=O)C(=S)Nc1ccc(F)cc1`, the EC50 in the data set on Plasmodium falciparum [1] was found to be 3320 nM; with Plasmodium falciparum [3], 2080 nM. The molecule also had a CC50 in data set [2] of 51400 nM.

Take `O=C(Nc1ccc2oc(-c3ccc(I)cc3)nc2c1)c1ccc([N+](=O)[O-])o1`: the values for the concentration giving a half-maximal response (EC50) in the data set with Plasmodium falciparum [1] and in the data set with Plasmodium falciparum [3] were 2200 nM and 3160 nM, respectively. Moreover, the CC50 in data set [2] came out at 33800 nM.

`CN1CCN(c2c3c(c(C#N)c4nc5ccccc5n24)CCC3)CC1`: the results for the EC50 in the data set with Plasmodium falciparum [1] and with Plasmodium falciparum [3] were over 6490 nM and 1180 nM, respectively. The CC50 in data set [2] is over 100000 nM.

Take `NC(=O)c1ccc2c(c1)N=C(c1cccnc1)N(C1CC1)C2`: the EC50 came to 648 nM with Plasmodium falciparum [1] and 1300 nM with Plasmodium falciparum [3]. This molecule had a CC50 in data set [2] of over 10000 nM.

Take `COc1ccc(-n2cc(-c3ccccc3)[n+]3c2SCC3)cc1`: the EC50 in the data set with Plasmodium falciparum [1] was determined as 647 nM; with Plasmodium falciparum [3], 527 nM. Also, the CC50 in data set [2] is over 10000 nM.

Turning to `COC(=O)C1=C(C)NC2=C(C(=O)CC(C)(C)C2)C1c1ccccc1[N+](=O)[O-]` (stereo not given), the EC50 with Plasmodium falciparum [1] is 5970 nM; with Plasmodium falciparum [3] it was over 12500 nM. In data set [2], this molecule gave a CC50 of over 91500 nM.

Take `COCCNC(=O)c1ccc(NCCc2ccc(Cl)cc2)c(S(=O)(=O)Nc2cccc(C(F)(F)F)c2)c1`: the values for the EC50 with Plasmodium falciparum [1] and with Plasmodium falciparum [3] were 6520 nM and 7340 nM, respectively. For the same molecule, the CC50 in data set [2] is over 100000 nM.

For the molecule `CC1=C(CCN(CCCN(C)C)CCCN(C)C)C(C)(C)CCC1`, the EC50 in the data set on Plasmodium falciparum [1] is 498 nM; in the data set with Plasmodium falciparum [3] it was 193 nM. In data set [2], the CC50 is 7660 nM.

Regarding `O=C(C1Cc2ccccc2CN1S(=O)(=O)c1ccc(F)cc1)N1CCOCC1` (stereo not given), the EC50 with Plasmodium falciparum [1] was 641 nM; in the data set with Plasmodium falciparum [3], over 1340 nM. The molecule also showed a CC50 in data set [2] of over 10000 nM.

`COc1ccc(-c2noc(-c3cccc(I)c3)n2)cc1OC`: the EC50 with Plasmodium falciparum [1] is over 873 nM; in the data set on Plasmodium falciparum [3], over 1740 nM. The same molecule registered a CC50 in data set [2] of over 13600 nM.

For the molecule `CSc1oc(C(C)(C)C)nc1[P+](c1ccccc1)(c1ccccc1)c1ccccc1`, the EC50 with Plasmodium falciparum [1] is 438 nM; in the data set with Plasmodium falciparum [3] it was 296 nM. Further, it took 6820 nM to reach half-maximal cytotoxicity in data set [2] (CC50).

For `C=CCSc1nc(Sc2ccc(Cl)cc2)c2sc3ccccc3c2n1`, the EC50 in the data set with Plasmodium falciparum [1] is over 642 nM; in the data set on Plasmodium falciparum [3], over 1250 nM. The same molecule gave a CC50 in data set [2] of over 10000 nM.

For `Cc1cccc(C)c1NC(=O)N1CCN(C(=O)c2nc(-c3ccccc3)nc(C)c2C(=O)OC(C)C)CC1C` (stereo not given), the EC50 in the data set with Plasmodium falciparum [1] is 642 nM; in the data set with Plasmodium falciparum [3], 792 nM. The CC50 in data set [2] is over 10000 nM.

Take `CCOC(=O)c1cnc(SCC(=O)Nc2cc(C)ccc2C)nc1N`: the EC50 in the data set with Plasmodium falciparum [1] is over 660 nM; with Plasmodium falciparum [3], over 1250 nM. Also, in data set [2], the CC50 is over 10000 nM.

Regarding `CCCCCCN(C(=O)c1ccccc1)C(CC)c1nc2ccccc2c(=O)n1-c1ccccc1OC` (stereo not given), the EC50 in the data set with Plasmodium falciparum [1] was found to be 526 nM; in the data set on Plasmodium falciparum [3], 1050 nM. This molecule had a CC50 in data set [2] of over 7980 nM.

`COc1ccccc1NC(=O)CCCC(=O)OC(C)C(=O)c1ccccc1` (stereo not given): the EC50 in the data set on Plasmodium falciparum [1] is over 659 nM; in the data set on Plasmodium falciparum [3], over 1250 nM. For the same molecule, in data set [2], the CC50 was over 10000 nM.

As to `FC(F)(F)c1cccc(CNC2CCN(CCc3ccccc3)CC2)c1`, the figures for the EC50 in the data set with Plasmodium falciparum [1] and in the data set on Plasmodium falciparum [3] were 487 nM and 174 nM, respectively. For the same molecule, the CC50 in data set [2] is 7390 nM.

Regarding `Cc1ccc(Sc2cc(C(=O)NCc3ccco3)c3ccccc3n2)cc1`, the EC50 with Plasmodium falciparum [1] is 6580 nM; with Plasmodium falciparum [3] it was over 6980 nM. In data set [2], this molecule showed a CC50 of over 100000 nM.

As to `C(=C\c1ccccc1)/CNC1CCN(Cc2ccccc2)CC1`, the EC50 with Plasmodium falciparum [1] is 657 nM; with Plasmodium falciparum [3], 995 nM. This molecule came in with a CC50 in data set [2] of over 10000 nM.

As for `CCOc1ccc(NC2=C(N3CCOCC3)C(=O)c3ccccc3C2=O)cc1`, the EC50 in the data set on Plasmodium falciparum [1] was 6570 nM; in the data set with Plasmodium falciparum [3], 3660 nM. For the same molecule, the cytotoxic concentration (CC50) in data set [2] is over 100000 nM.

With `Cc1cccc(C)c1NC(=O)N1CCN(C2CCCCC2)CC1`, the EC50 was over 6560 nM in the data set with Plasmodium falciparum [1] and over 12500 nM with Plasmodium falciparum [3]. Moreover, the CC50 in data set [2] was over 100000 nM.

As for `CC(=O)N1CCc2cc(NC3CCN(Cc4ccccc4)CC3)ccc21`, the EC50 with Plasmodium falciparum [1] is over 656 nM; in the data set with Plasmodium falciparum [3], over 1250 nM. For the same molecule, the CC50 in data set [2] was over 10000 nM.

For `CCOC(=O)c1ccc(N2C(=O)c3[nH]nc(C)c3C2c2ccccc2OC)cc1` (stereo not given), the EC50 is over 655 nM in the data set with Plasmodium falciparum [1] and 610 nM in the data set on Plasmodium falciparum [3]. The same molecule came in with a CC50 in data set [2] of over 10000 nM.

With `CC1N=C2c3ccccc3N=C(SCc3ccc(F)cc3)N2C1=O` (stereo not given), the EC50 is over 6530 nM in the data set on Plasmodium falciparum [1] and over 12500 nM in the data set with Plasmodium falciparum [3]. Besides, in data set [2], the CC50 was over 100000 nM.

For `CCOCc1nnc(NC(=O)COc2ccc(Cl)cc2Cl)s1`, the results for the EC50 with Plasmodium falciparum [1] and in the data set with Plasmodium falciparum [3] were 6420 nM and over 12500 nM, respectively. The same molecule showed a CC50 in data set [2] of over 100000 nM.

As for `CCC(=O)N(C1=C(NC)C(=O)c2ccccc2C1=O)C(C)C`, the EC50 in the data set with Plasmodium falciparum [1] is 36.5 nM; in the data set with Plasmodium falciparum [3], 8.99 nM. This molecule also had a CC50 in data set [2] of 563 nM.

For `CC[n+]1c(C=Cc2ccc(Cl)cc2)ccc2ccccc21`, the results for the EC50 in the data set on Plasmodium falciparum [1] and in the data set with Plasmodium falciparum [3] were 1260 nM and 3750 nM, respectively. Further, the CC50 in data set [2] worked out at 19500 nM.

With `CC1=NOC(=O)C1=Cc1ccc(-c2ccc([N+](=O)[O-])cc2)o1`, the EC50 in the data set on Plasmodium falciparum [1] was 6500 nM; with Plasmodium falciparum [3], over 12500 nM. Also, the CC50 in data set [2] was over 100000 nM.

With `CCCC1=NN(c2nc3ccccc3s2)C(=O)C1`, the results for the concentration for a half-maximal effect (EC50) with Plasmodium falciparum [1] and with Plasmodium falciparum [3] were over 644 nM and over 1250 nM, respectively. The same molecule had a CC50 in data set [2] of over 10000 nM.

Turning to `O=C1NN(c2ccc(Br)cc2)C(=O)/C1=C\c1c(O)ccc2ccccc12`, the results for the EC50 with Plasmodium falciparum [1] and in the data set on Plasmodium falciparum [3] were 653 nM and 856 nM, respectively. For the same molecule, the CC50 in data set [2] is over 10000 nM.

`Cc1cnc(CNc2cc(-c3ccccn3)nc(-c3ccccn3)n2)nc1`: the EC50 was determined as 646 nM in the data set with Plasmodium falciparum [1] and 465 nM in the data set with Plasmodium falciparum [3]. Further, the CC50 in data set [2] was over 10000 nM.

For `CN(C)CC(C)(C)CNCc1cc(-c2ccnc3cc(Cl)ccc23)ccc1O`, the EC50 in the data set on Plasmodium falciparum [1] amounted to 660 nM; with Plasmodium falciparum [3] it was 880 nM. In data set [2], this molecule yielded a CC50 of over 10000 nM.
